IC50 data for 40 molecules are collected here from patent US12581252B2, “Substituted pyrrolo[3,4-b]pyridines as PI3K-α inhibitors” (Relay Therapeutics, Inc., priority 2020, dated 2026).

Broadly, the IC50 is the concentration that gives 50% inhibition. The low end stands for inhibition by little substance, the high end for a need for much substance.

Chain of H1047R PIK3CA enzyme (P42336 whole entry H1047R): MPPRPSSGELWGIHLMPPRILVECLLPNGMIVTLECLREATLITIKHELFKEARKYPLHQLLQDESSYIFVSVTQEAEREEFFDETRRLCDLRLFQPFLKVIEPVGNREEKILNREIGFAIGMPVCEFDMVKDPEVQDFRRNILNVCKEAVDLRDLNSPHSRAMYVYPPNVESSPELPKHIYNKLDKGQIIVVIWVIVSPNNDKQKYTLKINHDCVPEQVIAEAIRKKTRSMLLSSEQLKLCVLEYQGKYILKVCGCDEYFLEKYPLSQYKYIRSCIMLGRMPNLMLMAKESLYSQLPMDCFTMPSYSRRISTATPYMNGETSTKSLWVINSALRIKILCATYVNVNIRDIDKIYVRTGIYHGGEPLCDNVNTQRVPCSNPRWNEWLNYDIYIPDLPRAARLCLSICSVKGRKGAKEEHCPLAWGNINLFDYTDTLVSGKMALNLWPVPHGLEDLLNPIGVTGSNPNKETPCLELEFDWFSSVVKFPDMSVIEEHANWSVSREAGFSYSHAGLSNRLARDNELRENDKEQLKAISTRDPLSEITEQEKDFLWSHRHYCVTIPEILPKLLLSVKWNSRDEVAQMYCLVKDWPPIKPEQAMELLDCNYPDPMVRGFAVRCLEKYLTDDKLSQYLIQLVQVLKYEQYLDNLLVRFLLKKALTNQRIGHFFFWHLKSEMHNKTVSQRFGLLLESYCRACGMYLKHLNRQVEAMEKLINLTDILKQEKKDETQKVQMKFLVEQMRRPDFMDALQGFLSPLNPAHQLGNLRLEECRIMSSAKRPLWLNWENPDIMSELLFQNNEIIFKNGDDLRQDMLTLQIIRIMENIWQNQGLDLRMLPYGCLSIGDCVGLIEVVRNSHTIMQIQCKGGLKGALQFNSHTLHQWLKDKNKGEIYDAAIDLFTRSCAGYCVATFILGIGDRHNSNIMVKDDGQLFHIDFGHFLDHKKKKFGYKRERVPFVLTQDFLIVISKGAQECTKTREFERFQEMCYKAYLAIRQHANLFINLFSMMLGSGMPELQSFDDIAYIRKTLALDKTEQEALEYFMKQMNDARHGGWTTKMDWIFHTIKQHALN
Chain of H1047R PIK3CA enzyme (P27986 whole entry partner): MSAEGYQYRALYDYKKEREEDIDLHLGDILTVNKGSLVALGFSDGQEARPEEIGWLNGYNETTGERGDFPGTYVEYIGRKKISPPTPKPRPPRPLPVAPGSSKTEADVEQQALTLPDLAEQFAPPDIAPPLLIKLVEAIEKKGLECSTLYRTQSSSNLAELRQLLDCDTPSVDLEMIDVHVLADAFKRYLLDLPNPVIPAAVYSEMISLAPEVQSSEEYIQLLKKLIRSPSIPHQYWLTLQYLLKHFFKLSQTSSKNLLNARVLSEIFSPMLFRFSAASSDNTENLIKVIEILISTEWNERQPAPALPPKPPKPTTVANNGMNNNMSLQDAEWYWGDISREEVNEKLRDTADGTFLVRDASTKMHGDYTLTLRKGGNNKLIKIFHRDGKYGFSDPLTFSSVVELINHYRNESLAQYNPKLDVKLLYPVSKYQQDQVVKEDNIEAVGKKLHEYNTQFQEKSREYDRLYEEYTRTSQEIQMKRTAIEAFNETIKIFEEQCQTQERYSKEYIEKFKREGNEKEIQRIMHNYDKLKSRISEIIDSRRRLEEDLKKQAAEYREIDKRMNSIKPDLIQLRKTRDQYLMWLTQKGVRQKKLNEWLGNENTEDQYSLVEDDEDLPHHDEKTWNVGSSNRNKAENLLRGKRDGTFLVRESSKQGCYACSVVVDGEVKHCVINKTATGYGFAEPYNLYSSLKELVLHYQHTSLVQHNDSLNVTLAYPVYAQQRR

The target of the assay is H1047R PIK3CA enzyme (Homo sapiens, UniProt P42336, H1047R). In words: ADP-Glo Biochemical PIK3CA Kinase Assay. Here is the method:
Compounds to be assayed were plated in 16 doses of 1:2 serial dilutions (20 nL volume each well) on a 1536-well plate, and the plate warmed to room temperature. […] To the well was added 1 μL of 200 μM ATP and 20 μM of diC8-PIP2 in Substrate Assay Buffer (50 mM HEPES pH7.4, 50 mM NaCl, 5 mM DTT and 0.03% CHAPS) to start the reaction, and the plate was shaken for 10 seconds, then spun briefly at 1500 rpm, and then incubated for 60 minutes at room temperature. The reaction was stopped by adding 2 μL of ADP-Glo reagent (Promega), and spinning briefly at 1500 rpm, and then incubating for 40 minutes. ADP-Glo Detection reagent (Promega) was added and the plate spun briefly at 1500 rpm, then incubated for 30 minutes.
In turn, `O=C1NC(c2cc(F)ccc2Cl)c2c(NC(=O)N3CC(C(F)(F)F)CC(C(F)(F)F)C3)cc(Br)cc21` (racemic) [Compound I-661] registered an IC50 of 1000 to 10000 nM.

`O=C(Nc1cc(C2CCO2)cc2c1C(c1cc(F)ccc1Cl)NC2=O)c1cc(F)cc(C(F)(F)F)c1` (racemic) [Compound I-662]: the IC50 is 100 to 500 nM.

The molecule `CC(O)c1cc(NC(=O)c2cc(F)cc(C(F)(F)F)c2)c2c(c1)C(=O)NC2c1cc(F)ccc1Cl` (racemic) [Compound I-664] gave an IC50 of at most 100 nM.

The molecule `CC(O)Cc1cc(NC(=O)c2cc(F)cc(C(F)(F)F)c2)c2c(c1)C(=O)NC2c1cc(F)ccc1Cl` (racemic) [Compound I-665] displayed an IC50 of at most 100 nM.

The molecule `CN1CCN(C(=O)Nc2cc(Br)cc3c2C(c2cc(F)ccc2Cl)NC3=O)CC1(C)C` (racemic) [Compound I-685] yielded an IC50 of 10000 to 100000 nM.

For `CC1CN(C(=O)Nc2cc(Br)cc3c2C(c2cc(F)ccc2Cl)NC3=O)CCN1C` (racemic) [Compound I-686], the IC50 is 10000 to 100000 nM.

Molecule `O=C1NC(c2cc(F)ccc2Cl)c2c(NC(=O)N3CC[C@H](F)[C@@H](F)C3)cc(Br)cc21` (mixture of isomers) [Compound I-720] gave an IC50 of 10000 to 100000 nM.

`O=C(Nc1cc(N[C@@H]2CC[C@H]2O)cc2c1C(c1cc(F)ccc1Cl)NC2=O)c1cc(F)cc(C(F)(F)F)c1` (mixture of isomers) [Compound I-721] showed an IC50 of at most 100 nM.

With `O=C(Nc1cc(C2CCOC2)cc2c1C(c1cc(F)ccc1Cl)NC2=O)c1cc(F)cc(C(F)(F)F)c1` (racemic) [Compound I-778], the IC50 is at most 100 nM.

Molecule `CO[C@@H]1CC[C@H]1Nc1cc(NC(=O)c2cc(F)cc(C(F)(F)F)c2)c2c(c1)C(=O)NC2c1cc(F)ccc1Cl` (mixture of isomers) [Compound I-780] displayed an IC50 of at most 100 nM.

`COc1ccc([C@H](C)N2C(=O)c3cc(Br)cc(N)c3[C@H]2c2cc(F)ccc2Cl)cc1` (racemic) [Compound I-862] displayed an IC50 of 1000 to 10000 nM.

Turning to `COc1ccc([C@H](C)N2C(=O)c3cc(Br)cc(N)c3[C@@H]2c2cc(F)ccc2Cl)cc1` (racemic) [Compound I-863], the IC50 was in the range of 1000 to 10000 nM.

For the molecule `O=C(Nc1cc(O[C@@H]2COC[C@H]2O)cc2c1C(c1cc(F)ccc1Cl)NC2=O)c1cc(F)cc(C(F)(F)F)c1` (mixture of isomers) [Compound I-1192], the IC50 was at most 100 nM.

Take `Cn1ccnc1-c1cc(NC(=O)c2cc(F)cc(C(F)(F)F)c2)c2c(c1)C(=O)NC2c1cc(F)ccc1Cl` (racemic) [Compound I-1193]: the IC50 fell in the range of 100 to 500 nM.

With `O=C(Nc1cc(O[C@H]2CC[C@H]2O)cc2c1C(c1cc(F)ccc1Cl)NC2=O)c1cc(F)cc(C(F)(F)F)c1` (mixture of isomers) [Compound I-1210], the IC50 was at most 100 nM.

Turning to `O=C(Nc1cc(OC2CCCOC2)cc2c1C(c1cc(F)ccc1Cl)NC2=O)c1cc(F)cc(C(F)(F)F)c1` (racemic) [Compound I-1239], the IC50 is at most 100 nM.

In the case of `N#CCC(O)c1cc(NC(=O)c2cc(F)cc(C(F)(F)F)c2)c2c(c1)C(=O)NC2c1cc(F)ccc1Cl` (racemic) [Compound I-1243], the IC50 is at most 100 nM.

Consider `O=C(Nc1cc(C2CNCCS2(=O)=O)cc2c1C(c1cc(F)ccc1Cl)NC2=O)c1cc(F)cc(C(F)(F)F)c1` (racemic) [Compound I-1255], for which the IC50 is at most 100 nM.

As for `O=C(Nc1cc(O[C@H]2CC[C@@H]2O)cc2c1C(c1cc(F)ccc1Cl)NC2=O)c1cc(F)cc(C(F)(F)F)c1` (mixture of isomers) [Compound I-1289], the IC50 fell in the range of 100 to 500 nM.

Regarding `N#C[C@H]1C[C@@H](Oc2cc(NC(=O)c3cc(F)cc(C(F)(F)F)c3)c3c(c2)C(=O)NC3c2cc(F)ccc2Cl)C1` (mixture of isomers) [Compound I-1295], the IC50 is at most 100 nM.

`CC(C)(O)C(O)c1cc(NC(=O)c2cc(F)cc(C(F)(F)F)c2)c2c(c1)C(=O)NC2c1cc(F)ccc1Cl` (racemic) [Compound I-1307] displayed an IC50 of 100 to 500 nM.

The molecule `O=C(Nc1cc(OC2CN(C(=O)C(F)(F)F)C2)cc2c1C(c1cc(F)ccc1Cl)NC2=O)c1cc(F)cc(C(F)(F)F)c1` (racemic) [Compound I-1320] showed an IC50 of 100 to 500 nM.

For the molecule `O=C(Nc1cc(C[n+]2ccccc2)cc2c1[C@H](c1cc(F)ccc1Cl)NC2=O)c1cc(F)cc(C(F)(F)F)c1` (racemic) [Compound I-1321], the IC50 is at most 100 nM.

`CC(=O)NCCOc1cc(NC(=O)c2cc(F)cc(C(F)(F)F)c2)c2c(c1)C(=O)NC2c1cc(F)ccc1Cl` (racemic) [Compound I-1322] came in with an IC50 of 100 to 500 nM.

Turning to `CN1C(=O)CCC1COc1cc(NC(=O)c2cc(F)cc(C(F)(F)F)c2)c2c(c1)C(=O)NC2c1cc(F)ccc1Cl` (racemic) [Compound I-1347], the half-maximal inhibitory concentration (IC50) is at most 100 nM.

Consider `O=C(Nc1cc(OCC2CCO2)cc2c1C(c1cc(F)ccc1Cl)NC2=O)c1cc(F)cc(C(F)(F)F)c1` (racemic) [Compound I-1366], for which the IC50 is at most 100 nM.

`O=C(Nc1cc(OC[C@H]2CCCN2)cc2c1C(c1cc(F)ccc1Cl)NC2=O)c1cc(F)cc(C(F)(F)F)c1` (mixture of isomers) [Compound I-1457] returned an IC50 of 100 to 500 nM.

The molecule `CC(c1cc(NC(=O)c2cc(F)cc(C(F)(F)F)c2)c2c(c1)C(=O)NC2c1cc(F)ccc1Cl)[S+](C)[O-]` (racemic) [Compound I-1472] yielded an IC50 of 100 to 500 nM.

As for `O=C(Nc1cc(NC(=O)c2cc(F)cc(C(F)(F)F)c2)c2c(c1)C(=O)N[C@@H]2c1cc(F)ccc1Cl)c1cccnc1` (racemic) [Compound I-1478], the IC50 lay within 100 to 500 nM.

Molecule `CSC(C)c1cc(NC(=O)c2cc(F)cc(C(F)(F)F)c2)c2c(c1)C(=O)NC2c1cc(F)ccc1Cl` (racemic) [Compound I-1490] returned a half-inhibitory concentration (IC50) of at most 100 nM.

As to `CS(=O)(=O)N1CCC[C@H](Oc2cc(NC(=O)c3cc(F)cc(C(F)(F)F)c3)c3c(c2)C(=O)NC3c2cc(F)ccc2Cl)C1` (mixture of isomers) [Compound I-1526], the 50% inhibitory concentration (IC50) was in the range of 100 to 500 nM.

For the molecule `O=C(Nc1cc(O[C@H]2CCCNC2)cc2c1C(c1cc(F)ccc1Cl)NC2=O)c1cc(F)cc(C(F)(F)F)c1` (mixture of isomers) [Compound I-1527], the IC50 was in the range of 100 to 500 nM.

With `CC(C)(C#N)n1cc(-c2cc(NC(=O)c3cc(F)cc(C(F)(F)F)c3)c3c(c2)C(=O)N[C@H]3c2cc(F)ccc2Cl)cn1` (racemic) [Compound I-1661], the IC50 was at most 100 nM.

As to `CN1CC(c2cc(NC(=O)c3cc(F)cc(C(F)(F)F)c3)c3c(c2)C(=O)NC3c2cc(F)ccc2Cl)CC1=O` (racemic) [Compound I-1687], the concentration for half-maximal inhibition (IC50) was at most 100 nM.

`CN1CCCC[C@@H]1[C@@H]1NC(=O)c2cccc(NC(=O)c3cc(F)cc(C(F)(F)F)c3)c21` (racemic) [Compound I-1713]: the IC50 was 10000 to 100000 nM.

`CN1CCCC[C@H]1[C@@H]1NC(=O)c2cccc(NC(=O)c3cc(F)cc(C(F)(F)F)c3)c21` (racemic) [Compound I-1733] gave a concentration for half-maximal inhibition (IC50) of 10000 to 100000 nM.

As for `CN1CCCC(C2NC(=O)c3cccc(NC(=O)c4cc(F)cc(C(F)(F)F)c4)c32)C1` (racemic) [Compound I-1769], the IC50 lay in the range of 10000 to 100000 nM.

`O=C(Nc1cccc2c1C(C1CCNCC1)NC2=O)c1cc(F)cc(C(F)(F)F)c1` (racemic) [Compound I-1770] came in with an IC50 of 1000 to 10000 nM.

The molecule `CC(=O)N1CCCC(C2NC(=O)c3cccc(NC(=O)c4cc(F)cc(C(F)(F)F)c4)c32)C1` (racemic) [Compound I-1771] showed an IC50 of 10000 to 100000 nM.

Molecule `O=C1N[C@@H](c2cc(F)ccc2Cl)c2c(NC(=O)[C@H]3CCCCN3)cc(-c3ccc4ncnn4c3)cc21` (racemic) [Compound I-1779] returned a concentration for half-maximal inhibition (IC50) of 10000 to 100000 nM.
